pKi: −log10 of the molar value. Read-outs that look alike come from different tables or passages of the source.
Columns and labels:
Human α4β2 = biological target: T1, Human α4β2 (Homo sapiens, UniProt P17787+P43681); test: Competition binding to receptors in membrane preparations, human α4β2 ([3H]-nicotine)
T1 construct: expressed in transfected cells; obtained from Dr. Ron Lukas, Barrow Neurological Institute
Procedure: (§1) SH-EP1/human α4β2 (Eaton et al., 2003), SH-EP1/human α4β4 (Gentry et al., 2003), SH-EP1/α6β3β4α5 (Grinevich et al., 2005), TE671/RD and SH-SY5Y cell lines (obtained from Dr. Ron Lukas, Barrow Neurological Institute) were maintained in proliferative growth phase in Dulbecco's modified Eagle's medium (Gibco/BRL) with 10% horse serum (Gibco BRL), 5% fetal bovine serum (HyClone, Logan Utah), 1 mM sodium pyruvate, 4 mM L-glutamine. For maintenance of stable transfectants, the α4β2 and α4β4 cell media was supplemented with 0.25 mg/mL zeocin and 0.13 mg/mL hygromycin B. Selection was maintained for the α6β3β4α5 cells with 0.25 mg/mL of zeocin, 0.13 mg/mL of hygromycin B, 0.4 mg/mL of geneticin, and 0.2 mg/mL of blasticidin. HEK/human α7/RIC3 cells (obtained from J. Lindstrom, U. Pennsylvania) were maintained in proliferative growth phase in Dulbecco's modified Eagle's medium (Gibco/BRL) with 10% fetal bovine serum (HyClone, Logan Utah), 1 mM sodium pyruvate, 4 mM L-glutamine, 0.4 mg/mL geneticin; 0.2 mg/ml hygromycin B.
(§2) Cells were harvested in ice-cold PBS, pH 7.4, then homogenized with a polytron (Brinkmann Instruments, Westbury, N.Y.). Homongenates were centrifuged at 40,000 g for 20 minutes (4° C.). The pellet was resuspended in PBS and protein concentration determined using the Pierce BCA Protein Assay kit (Pierce Biotechnology, Rockford, Ill.).
(§3) Binding to nicotinic receptors was assayed on membranes using standard methods adapted from published procedures (Lippiello and Fernandes, 1986; Davies et al., 1999). In brief, membranes were reconstituted from frozen stocks (approximately 0.2 mg protein) and incubated for 2 h on ice in […] assay buffer (PBS) in the presence of competitor compound (0.001 nM to […]) and radioligand. [^3H]-nicotine (L-(−)-[N-methyl-3H]-nicotine, 69.5 Ci/mmol, Perkin-Elmer Life Sciences) was used for human α4β2 binding studies. [^3H]-epibatidine (52 Ci/mmol, Perkin-Elmer Life Sciences) was used for binding studies at the other receptor subtypes. Incubation was terminated by rapid filtration on a multimanifold tissue harvester (Brandel, Gaithersburg, Md.) using GF/B filters presoaked in 0.33% polyethyleneimine (w/v) to reduce non-specific binding. Filters were washed 3 times and the radioactivity retained was determined by liquid scintillation counting.
(§4) Binding data were expressed as percent total control binding. Replicates for each point were averaged and plotted against the log of drug concentration. The IC50 (concentration of the compound that produces 50% inhibition of binding) was determined by least squares non-linear regression using GraphPad Prism software (GraphPAD, San Diego, Calif.). Ki was calculated using the Cheng-Prusoff equation (Cheng and Prusoff, 1973).

Human α7 nAChR = biological target: T2, Human α7 nAChR (Homo sapiens, UniProt P36544); test: Competition binding to receptors in membrane preparations, human α7 ([3H]-epibatidine)
T2 construct: expressed in transfected cells; host or cells: HEK cells co-expressing RIC3 (from J. Lindstrom, U. Pennsylvania)
Procedure: as §1, §2, §3, §4

Human Ganglion = biological target: T3, Human Ganglion (Homo sapiens, UniProt P30926+P32297); test: Competition binding to receptors in membrane preparations, human ganglion subtype ([3H]-epibatidine)
T3 construct: endogenous in cells
Procedure: as §1, §2, §3, §4

Rat Ganglion = Rat Ganglion (Rattus norvegicus, UniProt P04757+P12392); test: Competition binding to receptors in membrane preparations, rat ganglion subtype ([3H]-epibatidine)
Procedure: as §3, §4

[1] = tested on: scopolamine induced deficit in mice; test: Morris Water Maze, scopolamine-induced memory (spatial) deficit; type: in vivo, male CD-1 mice
Procedure: Compounds of the present invention were tested in the Morris Water Navigation Task to characterize the cognitive-enhancing properties, namely through a chemically-induced memory (spatial) deficit task in the mouse.
The animals were male CD-1 mice (Charles River, Raleigh, N.C., USA), with 25-30 g body weight range on receipt. Animals were stabilized for at least 5 days after delivery in plastic cages on alpha-dry bedding with free access to food and water.
Test Compound, (2S,4E)-N-methyl-5-(5-((3R)-1-(4,4,4-trifluorobutanoyl)pyrrolidin-3-yloxy)-6-chloro-3-pyridinyl)-4-penten-2-amine, or a pharmaceutically acceptable salt thereof, such as the hemi-galactarate, was dissolved in deionized water (salt/base ratio=1.25).
The treatment schedule included scopolamine (0.75 mg/kg; s.c.) administered 15 minutes before the first training session each training day in combination with Test Compound (0.3, 1, 3 mg/kg of base) administered i.g. 25 minutes before the first training session each training day.
Scopolamine (0.75 mg/kg; s.c.) alone was administered 15 minutes before the training session each training day.
Cognitive activity was evaluated using an acquisition procedure in the Morris water maze whereby animals are administered a cognitively impairing compound (scopolamine) alone or in combination with a Test Compound during training sessions on days 1-4. Performance is evaluated on day 5 during a probe trial without any drug on board.
Preliminary analysis used one-way analysis of variance followed by post-hoc t-tests (Dunnetts) where applicable.

[2] = tested on: memory (recognition) task in the rat; test: Object recognition task (NOR); type: in vivo, male Sprague-Dawley rats
Procedure: The compounds of the present invention were assessed for cognitive enhancing properties in the object recognition task in rats. In more detail, the compounds of the present invention, specifically Test Compound, (2S,4E)-N-methyl-5-(5-((3R)-1-(4,4,4-trifluorobutanoyl)pyrrolidin-3-yloxy)-6-chloro-3-pyridinyl)-4-penten-2-amine, or a pharmaceutically acceptable salt thereof, such as the hemi-galactarate, were tested to characterize the cognitive-enhancing properties of in a memory (recognition) task in the rat following oral dosing. Reference is made, for example, to Ennaceur A., et al., (1988), A New One-Trial Test for Neurobiological Studies of Memory in Rats, Behavioral Brain Research, 31, pp. 47-59.
The animals used were male Sprague-Dawley rats (Charles River, Raleigh, N.C., USA), of 134-173 g body weight range on receipt. The animals were stabilized for at least 6 days after delivery in plastic cages on alpha-dry bedding with access to food and water (2 per cage).
The Test Compound was dissolved in deionized water. The treatment schedule was 0.001, 0.01 and 0.1 mg/kg of base (salt/base ratio=1.25; equivalent to […]) or vehicle was administered p.o. 6H before exploratory, acquisition, and recall object recognition trials. All treatments were separated by 24 h, however although the acclimation and acquisition trials were separated by 24 h, the recall trial occurred 30 h after the acquisition trial (i.e. 6 h after the third dose).
The method of evaluation included cognitive activity using the method of Luine et al. A statistical analysis was performed using parametric distribution (exploration time): Student's t-test; (% RI): Kruskall-Wallace One-way ANOVA on Ranks with Dunn's method for post-hoc analyses.

[3] = 0.3 mg/kg i.g. with scopolamine 0.75 mg/kg s.c., vs scopolamine alone, Dunnett's p<0.01

Row | SMILES | pKi (Human α4β2; read-out: Human α4β2 Ki) | pKi (Human α7 nAChR) | pKi (Human Ganglion) | pKi (Rat Ganglion) | also measured
1 | CN[C@@H](C)C/C=C/c1cncc(O[C@H]2CCN(C(=O)CCC(F)(F)F)C2)c1 | 7.96 | 4.31 | 4.74 | 4.48 | –
2 | CN[C@@H](C)C/C=C/c1cncc(O[C@H]2CCN(C(=O)c3ccc(F)cc3)C2)c1 | 8.28 | 4.24 | 4.85 | 3.72 | –
3 | CN[C@@H](C)C/C=C/c1cnc(Cl)c(O[C@H]2CCN(C(=O)c3ccc(F)cc3)C2)c1 | 8.82 | 4.01 | 4.80 | 5.23 | –
4 | CN[C@@H](C)C/C=C/c1cncc(O[C@@H]2CCN(C(=O)C(C)C)C2)c1 | 8.05 | 4.46 | 4.96 | 4.30 | –
5 | CN[C@@H](C)C/C=C/c1cncc(O[C@@H]2CCN(C(=O)c3ccc(F)cc3F)C2)c1 | 8.23 | 4.39 | 5.52 | 4.72 | –
6 | CN[C@@H](C)C/C=C/c1cncc(O[C@@H]2CCN(C(=O)C(C)(C)C)C2)c1 | 7.77 | 4.29 | 4.68 | 4.00 | –
7 | CN[C@@H](C)C/C=C/c1cncc(O[C@@H]2CCN(C(=O)C3CCC3)C2)c1 | 8.21 | 4.24 | 4.59 | 4.35 | –
8 | CN[C@@H](C)C/C=C/c1cncc(O[C@@H]2CCN(C(=O)C3CCCC3)C2)c1 | 8.13 | 4.59 | 4.85 | 4.55 | –
9 | CN[C@@H](C)C/C=C/c1cnc(Cl)c(O[C@@H]2CCN(C(=O)CCC(F)(F)F)C2)c1 [Test Compound, (2S,4E)-N-methyl-5-(5-((3R)-1-(4,4,4-trifluorobutanoyl)pyrrolidin-3-yloxy)-6-chloro-3-pyridinyl)-4-penten-2-amine] | – | – | – | – | mean distance from the platform (proximity) in the probe trial [1, 3]: significantly improved performance; time spent in the target quadrant in the probe trial [1, 3]: significantly improved performance; time spent in the target quadrant in the probe trial ([1]; 3.0 mg/kg i.g. with scopolamine 0.75 mg/kg s.c., vs scopolamine alone, Dunnett's p<0.05): significantly improved performance; spatial memory performance (summary) ([1]; doses of 0.3 and 3.0 mg/kg, animals cognitively impaired by scopolamine): significantly improved spatial memory performance; overt behavioral side effects ([2]; 0.001, 0.01, 0.1 mg/kg p.o., rats): No overt behavioral side effects were observed; recognition index (% RI) compared to vehicle-treated group ([2]; all dose groups 0.001-0.1 mg/kg p.o., statistical significance at the two higher doses): improved; time investigating object B (novel) versus object A (familiar) ([2]; any dose (0.001, 0.01 or 0.1 mg/kg p.o.), recall 6 h after third daily dose): spent significantly (P<0.05) more time investigating object B (novel) than object A (familiar); MED for % RI ([2]; p.o., rats, non-parametric statistical analyses): 0.01 mg/kg; episodic memory, % RI (summary) ([2]; young rats, dose range of 0.01 to 0.1 mg/kg, strong trend at 0.001 mg/kg): facilitates episodic memory
10 | CN[C@@H](C)C/C=C/c1cnc(Cl)c(O[C@@H]2CCN(C(=O)CCC(F)(F)F)C2)c1 [drawing 62] | – | 4.26 | 5.13 | 4.82 | pKi (Human α4β2): 8.85

From US20150119378A1, “AZETIDINYLOXY-, PYRROLIDINYLOXY-, AND PIPERIDINYLOXY-SUBSTITUTED METANICOTINES AS NEURONAL NICOTINIC ACETYLCHOLINE RECEPTOR LIGANDS” (priority 2013, published 2015)
